{"source": "patent US20080213410A1", "about": "“ANTI-HUMAN PAPILLOMAS VIRUS TOPICAL COMPOSITION” (priority 2007, published 2008)", "tested_on": "human papillomavirus (HPV) genital warts", "test": "15 months treatment of 90 infected patients, number of recurrent warts (Example 1)", "assay_type": "in vivo", "text": "The composition, to be applied topically or transdermally to the skin and mucous membranes, is of high interest because it triggers little or no side-effects, very little irritation, no restrictive length of application, no impact on non-infected skin, can heal surface and/or deep flesh warts and prevent the recurrence of outbreaks. The treatment consists in topically administering the composition to the HPV infected skin and mucous membranes of patients. Such physiological regions consists of, in particular, the skin of the penis, vulva (area outside the vagina), anus, scrotum, groin, or thigh and in the linings of the vagina, cervix, or rectum presenting the virus related warts. […] Two types of warts can be found in patients: acute or chronic warts. The first kind, the acute wart, can be treated by simply swiping the surface of the skin or mucous membrane with a swab, previously impregnated with the composition, and gently rubbing the skin in order to allow penetration of the composition in its deepest layers. The second kind is the chronic wart, which requires a more invasive type of treatment. Indeed, the treatment is either effected by applying to the skin or mucous surface to treat a transdermal patch, constantly and regularly diffusing the composition through the area it covers, or by using a microlet, which uses a needle rapidly piercing the skin and injecting the composition deeply in the flesh.\nPosology: Application of the topical composition is effected 1 time per week through swiping of the region with a swab containing the composition in the case of an acute wart or through the use of a transdermal patch or microlet in the case of a chronic wart.\nResults: Table 1 comprises the results of a 15 months treatment with the composition of the present invention on a total of 90 infected patients. Table 2 comprises the results of a 15 months treatment with liquid nitrogen on a total of 90 infected patients. The compiled data consists of the number of recurrent warts that had still developed after a 15 months treatment with either the cream of the present invention or with liquid nitrogen. These records represent direct evidence that the composition of the present invention is effective, the number of warts that had still reappeared after a 15 months long treatment of the intermittent lesion and inflammation being less important with the cream than with the liquid nitrogen. Indeed, 67% of patients treated with the composition of the present invention presented a low degree of infections after the 15 months treatment (1 to 2 recurrent warts) whereas only 13% of the patients treated with the liquid nitrogen presented similar results.", "data": [{"smiles": "N#N", "note": "[liquid nitrogen]", "values": [{"measurement": "patients presenting a low degree of infections after the 15 months treatment (1 to 2 recurrent warts)", "setting": "90 patients per treatment", "result": 13, "unit": "%"}, {"measurement": "Number of patients with 1 to 2 recurrent warts after a 15 months treatment", "setting": "90 patients, 1 to 2 warts", "result": 12}, {"measurement": "Number of patients with 3 to 5 recurrent warts after a 15 months treatment", "setting": "90 patients, 3 to 5 warts", "result": 49}, {"measurement": "Number of patients with 6 to 10 recurrent warts after a 15 months treatment", "setting": "90 patients, 6 to 10 warts", "result": 29}]}]}
